Laboratory results as given in the NIST ThermoML archive (doi:10.1021/je700350b).
± gives the expanded uncertainty stated by the source.

Test: xn = mol fraction of the nth substance listed
Details: for surface tension liquid-gas: Ring tensiometer; for binary diffusion coefficient: 101 kPa, Taylor dispersion method; for binary diffusion coefficient / viscosity: Liquid; for viscosity: 101.33 kPa

CCN(CC)CCO [(diethylamino)ethanol] + O
surface tension liquid-gas (283.15 K, x1 = 0.00104): 62.91 ± 2 mN/m
surface tension liquid-gas (283.15 K, x1 = 0.00111): 62.83 ± 2 mN/m
surface tension liquid-gas (283.15 K, x1 = 0.0013): 62.32 ± 2 mN/m
surface tension liquid-gas (283.15 K, x1 = 0.00336): 55.32 ± 1.8 mN/m
surface tension liquid-gas (283.15 K, x1 = 0.00503): 54.03 ± 1.7 mN/m
surface tension liquid-gas (283.15 K, x1 = 0.00679): 50.98 ± 1.6 mN/m
surface tension liquid-gas (283.15 K, x1 = 0.02372): 43.65 ± 1.4 mN/m
surface tension liquid-gas (283.15 K, x1 = 0.03998): 39.05 ± 1.2 mN/m
surface tension liquid-gas (283.15 K, x1 = 0.06011): 37.17 ± 1.2 mN/m
surface tension liquid-gas (283.15 K, x1 = 0.07276): 36.26 ± 1.1 mN/m
surface tension liquid-gas (283.15 K, x1 = 0.1253): 34.78 ± 1.1 mN/m
surface tension liquid-gas (283.15 K, x1 = 0.1749): 33.38 ± 1.1 mN/m
surface tension liquid-gas (283.15 K, x1 = 0.2503): 32.74 ± 1 mN/m
surface tension liquid-gas (283.15 K, x1 = 0.3515): 31.85 ± 1 mN/m
surface tension liquid-gas (283.15 K, x1 = 0.4018): 31.32 ± 0.98 mN/m
surface tension liquid-gas (283.15 K, x1 = 0.5038): 31.02 ± 0.97 mN/m
surface tension liquid-gas (283.15 K, x1 = 0.608): 30.63 ± 0.96 mN/m
surface tension liquid-gas (283.15 K, x1 = 0.712): 30.36 ± 0.95 mN/m
surface tension liquid-gas (283.15 K, x1 = 0.7503): 30.08 ± 0.94 mN/m
surface tension liquid-gas (283.15 K, x1 = 0.8542): 29.69 ± 0.93 mN/m
surface tension liquid-gas (283.15 K, x1 = 1): 28.79 ± 0.9 mN/m
surface tension liquid-gas (288.15 K, x1 = 0.00104): 62.06 ± 1.9 mN/m
surface tension liquid-gas (288.15 K, x1 = 0.00111): 61.98 ± 1.9 mN/m
surface tension liquid-gas (288.15 K, x1 = 0.0013): 61.47 ± 1.9 mN/m
surface tension liquid-gas (288.15 K, x1 = 0.00336): 54.27 ± 1.7 mN/m
surface tension liquid-gas (288.15 K, x1 = 0.00503): 53.11 ± 1.6 mN/m
surface tension liquid-gas (288.15 K, x1 = 0.00679): 49.93 ± 1.6 mN/m
surface tension liquid-gas (288.15 K, x1 = 0.02372): 42.61 ± 1.3 mN/m
surface tension liquid-gas (288.15 K, x1 = 0.03998): 38.43 ± 1.2 mN/m
surface tension liquid-gas (288.15 K, x1 = 0.06011): 36.56 ± 1.1 mN/m
surface tension liquid-gas (288.15 K, x1 = 0.07276): 35.84 ± 1.1 mN/m
surface tension liquid-gas (288.15 K, x1 = 0.1253): 34.38 ± 1.1 mN/m
surface tension liquid-gas (288.15 K, x1 = 0.1749): 32.58 ± 1 mN/m
surface tension liquid-gas (288.15 K, x1 = 0.2503): 32.22 ± 1 mN/m
surface tension liquid-gas (288.15 K, x1 = 0.3515): 31.24 ± 0.98 mN/m
surface tension liquid-gas (288.15 K, x1 = 0.4018): 30.72 ± 0.96 mN/m
surface tension liquid-gas (288.15 K, x1 = 0.5038): 30.62 ± 0.96 mN/m
surface tension liquid-gas (288.15 K, x1 = 0.608): 30.23 ± 0.95 mN/m
surface tension liquid-gas (288.15 K, x1 = 0.712): 29.96 ± 0.94 mN/m
surface tension liquid-gas (288.15 K, x1 = 0.7503): 29.69 ± 0.93 mN/m
surface tension liquid-gas (288.15 K, x1 = 0.8542): 29.3 ± 0.92 mN/m
surface tension liquid-gas (288.15 K, x1 = 1): 28.39 ± 0.89 mN/m
surface tension liquid-gas (293.15 K, x1 = 0.00104): 61.43 ± 1.9 mN/m
surface tension liquid-gas (293.15 K, x1 = 0.00111): 61.34 ± 1.9 mN/m
surface tension liquid-gas (293.15 K, x1 = 0.0013): 60.62 ± 1.9 mN/m
surface tension liquid-gas (293.15 K, x1 = 0.00336): 53.43 ± 1.6 mN/m
surface tension liquid-gas (293.15 K, x1 = 0.00503): 52.35 ± 1.6 mN/m
surface tension liquid-gas (293.15 K, x1 = 0.00679): 48.58 ± 1.5 mN/m
surface tension liquid-gas (293.15 K, x1 = 0.02372): 41.89 ± 1.3 mN/m
surface tension liquid-gas (293.15 K, x1 = 0.03998): 37.6 ± 1.2 mN/m
surface tension liquid-gas (293.15 K, x1 = 0.06011): 36 ± 1.1 mN/m
surface tension liquid-gas (293.15 K, x1 = 0.07276): 35.06 ± 1.1 mN/m
surface tension liquid-gas (293.15 K, x1 = 0.1253): 33.88 ± 1.1 mN/m
surface tension liquid-gas (293.15 K, x1 = 0.1749): 32.18 ± 1 mN/m
surface tension liquid-gas (293.15 K, x1 = 0.2503): 31.82 ± 0.99 mN/m
surface tension liquid-gas (293.15 K, x1 = 0.3515): 30.73 ± 0.96 mN/m
surface tension liquid-gas (293.15 K, x1 = 0.4018): 30.23 ± 0.95 mN/m
surface tension liquid-gas (293.15 K, x1 = 0.5038): 30.22 ± 0.95 mN/m
surface tension liquid-gas (293.15 K, x1 = 0.608): 29.73 ± 0.93 mN/m
surface tension liquid-gas (293.15 K, x1 = 0.712): 29.66 ± 0.93 mN/m
surface tension liquid-gas (293.15 K, x1 = 0.7503): 29.29 ± 0.92 mN/m
surface tension liquid-gas (293.15 K, x1 = 0.8542): 28.8 ± 0.9 mN/m
surface tension liquid-gas (293.15 K, x1 = 1): 27.99 ± 0.88 mN/m
surface tension liquid-gas (298.15 K, x1 = 0.00104): 60.8 ± 1.9 mN/m
surface tension liquid-gas (298.15 K, x1 = 0.00111): 60.7 ± 1.9 mN/m
surface tension liquid-gas (298.15 K, x1 = 0.0013): 59.88 ± 1.9 mN/m
surface tension liquid-gas (298.15 K, x1 = 0.00336): 52.59 ± 1.6 mN/m
surface tension liquid-gas (298.15 K, x1 = 0.00503): 51.41 ± 1.6 mN/m
surface tension liquid-gas (298.15 K, x1 = 0.00679): 47.43 ± 1.5 mN/m
surface tension liquid-gas (298.15 K, x1 = 0.02372): 40.85 ± 1.3 mN/m
surface tension liquid-gas (298.15 K, x1 = 0.03998): 36.88 ± 1.1 mN/m
surface tension liquid-gas (298.15 K, x1 = 0.06011): 35.23 ± 1.1 mN/m
surface tension liquid-gas (298.15 K, x1 = 0.07276): 34.59 ± 1.1 mN/m
surface tension liquid-gas (298.15 K, x1 = 0.1253): 33.18 ± 1 mN/m
surface tension liquid-gas (298.15 K, x1 = 0.1749): 31.58 ± 0.99 mN/m
surface tension liquid-gas (298.15 K, x1 = 0.2503): 31.21 ± 0.98 mN/m
surface tension liquid-gas (298.15 K, x1 = 0.3515): 30.22 ± 0.95 mN/m
surface tension liquid-gas (298.15 K, x1 = 0.4018): 29.73 ± 0.93 mN/m
surface tension liquid-gas (298.15 K, x1 = 0.5038): 29.72 ± 0.93 mN/m
surface tension liquid-gas (298.15 K, x1 = 0.608): 29.23 ± 0.92 mN/m
surface tension liquid-gas (298.15 K, x1 = 0.712): 29.15 ± 0.91 mN/m
surface tension liquid-gas (298.15 K, x1 = 0.7503): 28.8 ± 0.9 mN/m
surface tension liquid-gas (298.15 K, x1 = 0.8542): 28.41 ± 0.89 mN/m
surface tension liquid-gas (298.15 K, x1 = 1): 27.6 ± 0.87 mN/m
binary diffusion coefficient (298.15 K, x1 = 0.00427): 6.17e-10 m2/s
binary diffusion coefficient (298.15 K, x1 = 0.01425): 4.95e-10 m2/s
binary diffusion coefficient (298.15 K, x1 = 0.03523): 2.95e-10 m2/s
binary diffusion coefficient (298.15 K, x1 = 0.05087): 2.23e-10 m2/s
binary diffusion coefficient (298.15 K, x1 = 0.05118): 2.22e-10 m2/s
binary diffusion coefficient (298.15 K, x1 = 0.07013): 1.58e-10 m2/s
binary diffusion coefficient (298.15 K, x1 = 0.09711): 1.32e-10 m2/s
binary diffusion coefficient (298.15 K, x1 = 0.1004): 1.26e-10 m2/s
binary diffusion coefficient (298.15 K, x1 = 0.1467): 1.07e-10 m2/s
viscosity (298.15 K, x1 = 0.01005): 1.201 ± 0.019 mPa·s
viscosity (298.15 K, x1 = 0.02016): 1.536 ± 0.024 mPa·s
viscosity (298.15 K, x1 = 0.03): 1.949 ± 0.03 mPa·s
viscosity (298.15 K, x1 = 0.04005): 2.421 ± 0.037 mPa·s
viscosity (298.15 K, x1 = 0.05946): 3.473 ± 0.054 mPa·s
viscosity (298.15 K, x1 = 0.06152): 3.51 ± 0.054 mPa·s
viscosity (298.15 K, x1 = 0.07026): 4.128 ± 0.064 mPa·s
viscosity (298.15 K, x1 = 0.08762): 5.181 ± 0.081 mPa·s
viscosity (298.15 K, x1 = 0.09008): 5.347 ± 0.084 mPa·s
viscosity (298.15 K, x1 = 0.11): 6.615 ± 0.1 mPa·s
viscosity (298.15 K, x1 = 0.12): 7.243 ± 0.11 mPa·s
viscosity (298.15 K, x1 = 0.1301): 7.863 ± 0.12 mPa·s
viscosity (298.15 K, x1 = 0.1401): 8.511 ± 0.14 mPa·s
